Source: patent US9963455B2, “Pyrazolo[1,5-a]pyrimidines as antiviral compounds” (Curovir AB, priority 2014, dated 2018)
Where two headings read alike, the source gives them in different places.

Columns and labels:
Type in all cases: cell-based
[1] = system: Human parechovirus strain 1; assay: CPE inhibition in mammalian cell culture, HPeV-1; details: Parechovirus A; for inhibition at 5 µM: Conc. 5 µM; for inhibition at 2.5 µM: Conc. 2.5 µM
[2] = system: encephalomyocarditis virus; assay: CPE inhibition in mammalian cell culture, EMCV; design: inhibition: dose or concentration left out as unconfirmed; details: Cardiovirus A; for inhibition at 10 µM: Conc. 10.0 μM; for inhibition at 100 µM: Conc. 0.1 mM
Enterovirus strain 30 = assay: CPE inhibition in mammalian cell culture, EV30; design: inhibition: dose or concentration left out as unconfirmed; details: for inhibition at 5 µM: Conc. 5 µM; for inhibition at 100 µM: Conc. 0.1 mM; for inhibition at 2.5 µM: Conc. 2.5 µM
Ljungan virus strain 012 = assay: CPE inhibition in mammalian cell culture, LV012; details: Parechovirus B; for inhibition at 5 µM: Conc. 5 µM; for inhibition at 100 µM: Conc. 0.1 mM
[3] = system: coxsackie B virus strain 1; assay: CPE inhibition in mammalian cell culture, Cox-B1; design: inhibition: dose or concentration left out as unconfirmed
[4] = system: coxsackie B virus strain 5; assay: CPE inhibition in mammalian cell culture, Cox-B5; design: inhibition: dose or concentration left out as unconfirmed
[5] = system: coxsackie B virus strain 2; assay: CPE inhibition in mammalian cell culture, Cox-B2; design: inhibition: dose or concentration left out as unconfirmed; details: read-out: antiviral effect, B2
[6] = system: coxsackie B virus strain 4; assay: CPE inhibition in mammalian cell culture, Cox-B4
polio virus strain 1 = assay: microbe, parasite or virus in culture; design: inhibition: dose or concentration left out as unconfirmed; details: read-out: antiviral effect, Polio 1
Enterovirus strain 6 = assay: microbe, parasite or virus in culture; design: inhibition: dose or concentration left out as unconfirmed; details: for inhibition: read-out: antiviral effect, EV6
[7] = system: coxsackie B virus strain 3; assay: CPE inhibition in mammalian cell culture, Cox-B3; design: inhibition: dose or concentration left out as unconfirmed
Enterovirus strain 71 = assay: CPE inhibition in mammalian cell culture, EV71; design: inhibition: dose or concentration left out as unconfirmed; details: read-out: antiviral effect, EV71; for inhibition at 100 µM: Conc. 0.1 mM
Ljungan virus strain 145 = assay: CPE inhibition in mammalian cell culture, LV145; design: inhibition: dose or concentration left out as unconfirmed; details: Parechovirus B; for inhibition at 100 µM: Conc. 0.1 mM
[8] = HPeV-1, Conc. 10.0 μM, read-out: % inh.
[9] = read-out: antiviral effect, EV30
[10] = read-out: antiviral effect, LV012
[11] = read-out: antiviral effect, HPeV-1
[12] = read-out: antiviral effect, LV145
[13] = read-out: antiviral effect, EMCV
[14] = Conc. 2.5 µM, read-out: antiviral effect, LV012

COc1ccc(-c2c(C)nn3c(NC4CCCCC4)cc(C)nc23)cc1OC [Ex. 43, N-cyclohexyl-3-(3,4-dimethoxyphenyl)-2,5-dimethyl-pyrazolo[1,5-a]pyrimidin-7-amine]
inhibition at 10 µM [1, 8]: 46%

Cc1cc(NCc2ccc(F)cc2)n2nc(C)c(-c3ccc(Cl)c(Cl)c3)c2n1 [Ex. 103, 3-(3,4-dichlorophenyl)-N-[(4-fluorophenyl)methyl]-2,5-dimethyl-pyrazolo[1,5-a]pyrimidin-7-amine]
inhibition at 10 µM ([2]; EMCV): 74%

COc1ccc(CNc2cc(C)nc3c(-c4ccc(OC)c(OC)c4)c(C)nn23)cc1 [Ex. 2, 3-(3,4-dimethoxyphenyl)-N-[(4-methoxyphenyl)methyl]-2,5-dimethyl-pyrazolo[1,5-a]pyrimidin-7-amine]
inhibition at 5 µM (Enterovirus strain 30; [9]): 91%
inhibition at 0.25 µM (Enterovirus strain 30; EV30, Conc. 0.25 μM): 85%
inhibition at 5 µM (Ljungan virus strain 012; [10]): 49%
inhibition at 5000 µM ([3]; read-out: antiviral effect, B1): 91%
inhibition at 5000 µM ([4]; read-out: antiviral effect, B5): 91%
inhibition at 5000 µM [5]: 93%
inhibition at 5000 µM ([6]; read-out: antiviral effect, B4): 86%
inhibition at 5000 µM (polio virus strain 1): 90%
inhibition (Enterovirus strain 6; Conc.): 83%
inhibition at 5 µM [1, 11]: 0%
inhibition at 5000 µM ([7]; read-out: antiviral effect, B3): 97%

COc1ccc(-c2cnn3c(NCc4ccncc4)cc(C)nc23)cc1OC [Ex. 100, 3-(3,4-dimethoxyphenyl)-5-methyl-N-(4-pyridylmethyl)pyrazolo[1,5-a]pyrimidin-7-amine]
inhibition at 100 µM (Enterovirus strain 30; [9]): 78%
inhibition at 0.1 µM (Enterovirus strain 30; EV30, Conc. 0.1 μM): 78%
inhibition at 100 µM (Ljungan virus strain 012; [10]): 0%
inhibition ([4]; read-out: antiviral effect, B5): 90%
inhibition at 100 µM (Enterovirus strain 71): 81%
inhibition at 100 µM (Ljungan virus strain 145; [12]): 0%
inhibition [5]: 99%
inhibition (polio virus strain 1): 83%
inhibition at 100 µM [2, 13]: 0%
inhibition (Enterovirus strain 6): 88%

COc1ccc(-c2c(C)nn3c(NCCc4ccc(Cl)cc4)cc(C)nc23)cc1OC [Ex. 5, N-[2-(4-chlorophenyl)ethyl]-3-(3,4-dimethoxyphenyl)-2,5-dimethyl-pyrazolo[1,5-a]pyrimidin-7-amine]
inhibition at 5 µM (Enterovirus strain 30; [9]): 58%
inhibition at 5 µM (Ljungan virus strain 012; [10]): 18%
inhibition at 5000 µM ([3]; read-out: antiviral effect, B1): 79%
inhibition at 5000 µM ([4]; read-out: antiviral effect, B5): 94%
inhibition at 5000 µM [5]: 76%
inhibition at 0.25 µM ([6]; read-out: % inh.): 71%
inhibition at 5000 µM ([6]; read-out: antiviral effect, B4): 97%
inhibition at 5000 µM (polio virus strain 1): 68%
inhibition (Enterovirus strain 6; Conc.): 80%
inhibition at 5 µM [1, 11]: 22%

COc1ccc(-c2c(C)nn3c(NCc4ccc(C(C)=O)cc4)cc(C)nc23)cc1OC [Ex. 94, 1-[4-[[[3-(3,4-dimethoxyphenyl)-2,5-dimethyl-pyrazolo[1,5-a]pyrimidin-7-yl]amino]methyl]phenyl]ethanone]
inhibition at 100 µM (Enterovirus strain 30; [9]): 96%
inhibition at 100 µM (Ljungan virus strain 012; [10]): 12%
inhibition at 0.01 µM ([3]; read-out: % inh.): 100%
inhibition ([3]; read-out: antiviral effect, B1): 100%
inhibition ([4]; read-out: antiviral effect, B5): 56%
inhibition at 100 µM (Enterovirus strain 71): 100%
inhibition at 100 µM (Ljungan virus strain 145; [12]): 0%
inhibition [5]: 100%
inhibition (polio virus strain 1): 100%
inhibition at 100 µM [2, 13]: 0%
inhibition ([7]; read-out: antiviral effect, B3): 100%

COc1ccc(-c2c(C)nn3c(NCc4ccc5c(c4)OCO5)cc(C)nc23)cc1OC [Ex. 8, N-(1,3-benzodioxol-5-ylmethyl)-3-(3,4-dimethoxyphenyl)-2,5-dimethyl-pyrazolo[1,5-a]pyrimidin-7-amine]
inhibition at 5 µM (Enterovirus strain 30; [9]): 53%
inhibition at 5 µM (Ljungan virus strain 012; [10]): 38%
inhibition at 5000 µM ([3]; read-out: antiviral effect, B1): 82%
inhibition at 0.25 µM ([4]; read-out: % inh.): 100%
inhibition at 5000 µM ([4]; read-out: antiviral effect, B5): 100%
inhibition at 5000 µM [5]: 100%
inhibition at 5000 µM ([6]; read-out: antiviral effect, B4): 89%
inhibition at 5000 µM (polio virus strain 1): 91%
inhibition (Enterovirus strain 6; Conc.): 88%
inhibition at 5 µM [1, 11]: 14%

COc1ccc(-c2c(C)nn3c(NCc4ccc(C)nc4)cc(C)nc23)cc1OC [Ex. 92, 3-(3,4-dimethoxyphenyl)-2,5-dimethyl-N-[(6-methyl-3-pyridyl)methyl]pyrazolo[1,5-a]pyrimidin-7-amine]
inhibition (Enterovirus strain 30; [9]): 100%
inhibition at 100 µM (Ljungan virus strain 012; [10]): 0%
inhibition ([3]; read-out: antiviral effect, B1): 100%
inhibition ([4]; read-out: antiviral effect, B5): 95%
inhibition at 100 µM (Ljungan virus strain 145; [12]): 0%
inhibition [5]: 96%
inhibition (polio virus strain 1): 98%
inhibition at 100 µM [2, 13]: 0%
inhibition at 0.01 µM ([7]; read-out: % inh.): 100%
inhibition ([7]; read-out: antiviral effect, B3): 100%

COc1ccc(-c2c(C)nn3c(NCCCc4ccccc4)cc(C)nc23)cc1OC [Ex. 7, 3-(3,4-dimethoxyphenyl)-2,5-dimethyl-N-(3-phenylpropyl)pyrazolo[1,5-a]pyrimidin-7-amine]
inhibition at 2.5 µM (Enterovirus strain 30; [9]): 89%
inhibition at 2.5 µM (Ljungan virus strain 012; [14]): 14%
inhibition at 2500 µM ([3]; read-out: antiviral effect, B1): 77%
inhibition at 2500 µM ([4]; read-out: antiviral effect, B5): 68%
inhibition at 2.5 µM (Ljungan virus strain 145; LV145, Conc. 2.5 μM): 54%
inhibition at 2500 µM [5]: 92%
inhibition at 2500 µM ([6]; read-out: antiviral effect, B4): 82%
inhibition at 2500 µM (polio virus strain 1): 80%
inhibition at 2.5 µM [1, 11]: 6%

COc1ccc(-c2c(C)nn3c(Nc4ccc(C(F)(F)F)cc4)cc(C)nc23)cc1OC [Ex. 73, 3-(3,4-dimethoxyphenyl)-2,5-dimethyl-N-[4-(trifluoromethyl)phenyl]pyrazolo[1,5-a]pyrimidin-7-amine]
inhibition at 0.1 µM ([6]; read-out: % inh.): 44%

COc1ccc(-c2c(C)nn3c(NCc4ccc(Cl)cc4)cc(C)nc23)cc1OC [Ex. 1, N-[(4-chlorophenyl)methyl]-3-(3,4-dimethoxyphenyl)-2,5-dimethyl-pyrazolo[1,5-a]pyrimidin-7-amine]
inhibition at 5 µM (Enterovirus strain 30; [9]): 100%
inhibition at 5 µM (Ljungan virus strain 012; [10]): 34%
inhibition at 5000 µM ([3]; read-out: antiviral effect, B1): 93%
inhibition at 5000 µM ([4]; read-out: antiviral effect, B5): 90%
inhibition at 5000 µM [5]: 60%
inhibition at 5000 µM ([6]; read-out: antiviral effect, B4): 86%
inhibition at 5000 µM (polio virus strain 1): 31%
inhibition (Enterovirus strain 6; Conc.): 90%
inhibition at 0.25 µM (Enterovirus strain 6; read-out: % inh.): 75%
inhibition at 5 µM [1, 11]: 14%
inhibition at 5000 µM ([7]; read-out: antiviral effect, B3): 95%

COc1ccc(-c2c(C)nn3c(NC4CCCC4)cc(C)nc23)cc1OC [Ex. 41, N-cyclopentyl-3-(3,4-dimethoxyphenyl)-2,5-dimethyl-pyrazolo[1,5-a]pyrimidin-7-amine]
inhibition at 10 µM ([2]; EMCV): 93%

Cc1cc(NCc2ccccc2)n2ncc(-c3ccc(Cl)cc3)c2n1 [Ex. 25, N-benzyl-3-(4-chlorophenyl)-5-methyl-pyrazolo[1,5-a]pyrimidin-7-amine]
inhibition at 10 µM [1, 8]: 24%

Cc1ccc(-c2c(C)nn3c(NCc4ccccn4)cc(C)nc23)cc1 [Ex. 33, 2,5-dimethyl-3-(p-tolyl)-N-(2-pyridylmethyl)pyrazolo[1,5-a]pyrimidin-7-amine]
inhibition at 10 µM (Enterovirus strain 30; Conc. 10 µM, read-out: antiviral effect, EV30): 85%
inhibition at 1 µM (Enterovirus strain 30; EV30, Conc. 1.0 μM, read-out: % inh.): 48%
inhibition at 10000 µM ([4]; read-out: antiviral effect, B5): 92%
inhibition (Enterovirus strain 71; Conc.): 0%
inhibition (Ljungan virus strain 145; Conc., read-out: antiviral effect, LV145): 69%
inhibition at 10000 µM [5]: 81%
inhibition at 10000 µM (polio virus strain 1): 58%
inhibition ([2]; Conc., read-out: antiviral effect, EMCV): 60%
inhibition at 10 µM ([1]; Conc. 10 µM, read-out: antiviral effect, HPeV-1): 13%

COc1ccc(CCNc2cc(C)nc3c(-c4ccc(OC)c(OC)c4)c(C)nn23)c(OC)c1 [Ex. 12, 3-(3,4-dimethoxyphenyl)-N-[2-(2,4-dimethoxyphenyl)ethyl]-2,5-dimethyl-pyrazolo[1,5-a]pyrimidin-7-amine]
inhibition at 2.5 µM (Enterovirus strain 30; [9]): 84%
inhibition at 2.5 µM (Ljungan virus strain 012; [14]): 60%
inhibition at 2.5 µM (Ljungan virus strain 012; LV012, Conc. 2.5 μM, read-out: % inh.): 60%
inhibition at 2500 µM ([3]; read-out: antiviral effect, B1): 93%
inhibition at 2500 µM ([4]; read-out: antiviral effect, B5): 82%
inhibition at 2500 µM ([6]; read-out: antiviral effect, B4): 77%
inhibition at 2500 µM (polio virus strain 1): 73%
inhibition at 2.5 µM [1, 11]: 8%

COc1ccc(-c2c(C)nn3c(Nc4ccon4)cc(C)nc23)cc1OC [Ex. 95, N-[3-(3,4-dimethoxyphenyl)-2,5-dimethyl-pyrazolo[1,5-a]pyrimidin-7-yl]isoxazol-3-amine]
inhibition at 10 µM [1, 8]: 55%

COc1ccc(-c2c(C)nn3c(NCc4ccc(C(F)(F)F)cc4)cc(C)nc23)cc1OC [Ex. 72, 3-(3,4-dimethoxyphenyl)-2,5-dimethyl-N-[[4-(trifluoromethyl)phenyl]methyl]pyrazolo[1,5-a]pyrimidin-7-amine]
inhibition at 1 µM (Enterovirus strain 30; Conc. 1 µM, read-out: antiviral effect, EV30): 100%
inhibition at 1 µM (Ljungan virus strain 012; Conc. 1 µM, read-out: antiviral effect, LV012): 0%
inhibition at 1000 µM ([3]; read-out: antiviral effect, B1): 100%
inhibition at 1000 µM ([4]; read-out: antiviral effect, B5): 99%
inhibition at 1000 µM [5]: 94%
inhibition at 0.1 µM ([6]; read-out: % inh.): 85%
inhibition at 1000 µM ([6]; read-out: antiviral effect, B4): 91%
inhibition at 1000 µM (polio virus strain 1): 100%
inhibition at 1 µM ([1]; Conc. 1 µM, read-out: antiviral effect, HPeV-1): 4%
inhibition at 1000 µM ([7]; read-out: antiviral effect, B3): 99%

Cc1cc(NC(C)c2ccccc2)n2nc(C)c(-c3ccc(F)cc3)c2n1 (centres unmarked) [Ex. 3, 3-(4-fluorophenyl)-2,5-dimethyl-N-(1-phenylethyl)pyrazolo[1,5-a]pyrimidin-7-amine]
inhibition at 2.5 µM ([2]; EMCV, Conc. 2.5 μM): 92%
